The values that follow come from patent publication US20170057955A1, “Pyridopyrimidinone Compounds for Modulating the Catalytic Activity of Histone Lysine Demethylases (KDMs)” (Dong-A Socio Holdings Co., Ltd., priority 2015, published 2017).

The structures appear in SMILES notation.

In the assay the target is T1, Recombinant human JARID1B/KDM5B (Homo sapiens, UniProt Q9UGL1).
T1 construct: purchased Active Motif 31432; host or cells: Sf9 insect cells
T1 sequence (Q9UGL1 whole entry): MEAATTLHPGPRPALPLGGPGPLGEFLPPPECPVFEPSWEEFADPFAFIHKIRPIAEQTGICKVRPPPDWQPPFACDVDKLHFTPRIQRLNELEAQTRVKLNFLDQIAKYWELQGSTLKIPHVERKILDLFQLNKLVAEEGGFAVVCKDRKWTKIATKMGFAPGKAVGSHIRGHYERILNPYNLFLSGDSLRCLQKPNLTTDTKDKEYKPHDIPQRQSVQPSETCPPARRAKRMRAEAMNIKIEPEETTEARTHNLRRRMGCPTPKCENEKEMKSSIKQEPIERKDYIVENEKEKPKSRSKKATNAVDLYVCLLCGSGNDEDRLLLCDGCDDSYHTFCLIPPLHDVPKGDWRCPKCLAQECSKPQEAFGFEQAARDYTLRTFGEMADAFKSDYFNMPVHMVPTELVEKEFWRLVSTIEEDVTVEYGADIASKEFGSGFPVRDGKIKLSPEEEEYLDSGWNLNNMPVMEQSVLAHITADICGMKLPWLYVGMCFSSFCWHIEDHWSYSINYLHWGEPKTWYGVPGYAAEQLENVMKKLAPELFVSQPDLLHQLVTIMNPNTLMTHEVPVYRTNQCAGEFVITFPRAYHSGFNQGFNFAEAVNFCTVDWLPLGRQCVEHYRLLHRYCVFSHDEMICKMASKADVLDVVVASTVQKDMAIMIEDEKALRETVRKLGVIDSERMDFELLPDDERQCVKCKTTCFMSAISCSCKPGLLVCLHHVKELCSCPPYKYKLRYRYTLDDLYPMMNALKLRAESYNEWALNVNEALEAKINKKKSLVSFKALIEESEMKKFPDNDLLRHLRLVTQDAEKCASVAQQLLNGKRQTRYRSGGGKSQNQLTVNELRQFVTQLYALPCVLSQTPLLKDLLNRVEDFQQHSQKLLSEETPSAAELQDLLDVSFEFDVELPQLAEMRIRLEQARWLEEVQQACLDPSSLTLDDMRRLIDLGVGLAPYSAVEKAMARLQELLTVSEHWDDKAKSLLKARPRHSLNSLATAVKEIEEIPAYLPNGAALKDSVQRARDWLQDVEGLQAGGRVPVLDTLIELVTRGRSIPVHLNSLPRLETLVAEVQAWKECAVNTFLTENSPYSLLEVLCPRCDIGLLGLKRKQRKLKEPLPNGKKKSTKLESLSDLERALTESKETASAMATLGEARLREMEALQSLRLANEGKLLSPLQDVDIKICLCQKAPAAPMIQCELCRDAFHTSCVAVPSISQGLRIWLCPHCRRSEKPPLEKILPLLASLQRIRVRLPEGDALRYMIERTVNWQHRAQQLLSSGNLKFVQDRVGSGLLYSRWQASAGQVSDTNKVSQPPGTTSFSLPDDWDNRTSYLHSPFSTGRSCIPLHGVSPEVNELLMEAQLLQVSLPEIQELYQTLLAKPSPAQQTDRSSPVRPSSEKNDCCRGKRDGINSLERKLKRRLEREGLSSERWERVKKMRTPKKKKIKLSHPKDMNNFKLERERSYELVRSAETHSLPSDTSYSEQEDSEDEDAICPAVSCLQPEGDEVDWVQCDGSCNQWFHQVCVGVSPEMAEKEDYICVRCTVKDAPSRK
The assay is described as follows: LANCE Ultra TR-FRET JARID1B (KDM5B) demethylase inhibition assay. The class given is biochemical. Conditions: 0.1 uM of test-compounds, FLAG-JARID1B, 500 nM biotinylated H3K4me3 peptide substrate, 30 min at room temperature. The text has this: FLAG-tagged JARID1B (also known as KDM5B) protein was screened against 49 compounds. For this compound screening, LANCE Ultra time-resolved fluorescence resonance energy transfer (TR-FRET) assay was employed using a europoium (Eu)-labeled antibody that can specifically recognize mono- or dimethylated peptides (H3K4me2/1) and ULight-streptavidin (ULight-SA), a small molecule fluorescent dye. When irradiated at 340 nm, the energy from the Eu donor is transferred to the ULight acceptor dye which, in turn, emits light primarily at 665 nm. The ratio between the intensity of primary emission at 665 nm and that of secondary emission at […] was used to quantify the level of lysine methylation. As JARID1B removes more methyl moieties from tri-methylated substrate peptides (H3K4me3), the ratio increases until the enzyme reaction is terminated. In case, therefore, the compounds disrupt the enzymatic activity completely, the ratio becomes equal to a background value.
Recombinant human JARID1B/KDM5B (accession number NP_006609) of molecular weight 179.9 KDa was expressed in Sf9 insect cells and contains an N-terminal FLAG tag. The enzyme was obtained from Active Motif (Catalog No. 31432). The tri-methylated histone substrate peptide of purity greater than 95% was a synthetic peptide in which the first 21 amino acids correspond to the human histone H3 sequence with three extra amino acids and a biotin motif (GGK-biotin) linked to the C-terminus [sequence: ART-K(Me3)-QTARKSTGGKAPRKQLA-GGK-biotin-OH], (AnaSpec, Fremont, Calif. Catalog. No. ANA-1413). The reference inhibitor compound tranylcypromine (or trans-2-phenylcyclopropylamine hydrochloride, also known as, 2-PCPA) was purchased from Sigma (St. Louis, Mo. Cat. no. P8511). ULight-labeled streptavidin (ULight-SA, Catalog no. TRF0102), Eu-W1024-labeled anti-methyl-Histone H3 Lysine 4 (H3K4me1-2) Antibody (Catalog no. TRF0402), and LANCE detection buffer 10× (Catalog no. CR97-100) were obtained from PerkinElmer (Montreal, Quebec, Canada). The TR-FRET experiments were carried out in white, low-volume 384-wellplates purchased from PerkinElmer (ProxiPlate_-384 Plus, Catalog no. 6008280).
The TR-FRET signal was measured in the presence both of the bio-H3K4me3 peptide and FLAG-JARID1B by detecting any H3K4me2/1 peptide produced in the assay system. Assays using only the bio-H3K4me2 peptide were served as a positive control. Robust enzymatic progressions were observed by using JARID1B at concentrations ranging from 10 to 30 nM. In a typical TR-FRET experiment, JARID1B was pre-incubated with or without 0.1 uM of test-compounds (containing 1% DMSO final) for 5 min. The enzymatic reactions were initiated by the addition of 500 nM biotinylated H3K4me3 peptide substrate plus 500 uM of 2-OG 25 uM Fe(II) and 2 mM ascorbate. The reaction buffer also contained 50 mM Hepes (pH7.5), 0.01% (v/v) Tween 20, and 50 mM NaCl. The reaction mixture was incubated for 30 min at room temperature before reading on an EnVision plate reader (PerkinElmer, Waltham, Mass.).
As for `Nc1nn(-c2nccc3c(=O)[nH]cnc23)cc1-c1cccc(OCc2ccccc2)c1` [Compound 31, 8-(3-amino-4-(3-(benzyloxy)phenyl)-1H-pyrazol-1-yl)pyrido[3,4-d]pyrimidin-4(3H)-one], the inhibition at 0.1 µM was at least 50%.
As for `Nc1nn(-c2nccc3c(=O)[nH]cnc23)cc1-c1cccc(Cl)c1` [Compound 32, 8-(3-amino-4-(3-chlorophenyl)-1H-pyrazol-1-yl)pyrido[3,4-d]pyrimidin-4(3H)-one], the figure is 20 to 50%; as for `CN1CCN(Cc2ccc(-c3cn(-c4nccc5c(=O)[nH]cnc45)nc3N)cc2)CC1` [Compound 33, 8-(3-amino-4-(4-((4-methylpiperazin-1-yl)methyl)phenyl)-1H-pyrazol-1-yl)pyrido[3,4-d]pyrimidin-4(3H)-one], 20 to 50%; as for `Nc1nn(-c2nccc3c(=O)[nH]cnc23)cc1-c1ccc(CN2CCCC2)cc1` [Compound 34, 8-(3-amino-4-(4-(pyrrolidin-1-ylmethyl)phenyl)-1H-pyrazol-1-yl)pyrido[3,4-d]pyrimidin-4(3H)-one], 20 to 50%.
Next, `Nc1nn(-c2nccc3c(=O)[nH]cnc23)cc1-c1cnn(C2CCCC2)c1` [Compound 35, 8-(3-amino-1′-cyclopentyl-1H,1′H-[4,4′-bipyrazol]-1-yl)pyrido[3,4-d]pyrimidin-4(3H)-one]: 20 to 50%.
Take `Nc1nn(-c2nccc3c(=O)[nH]cnc23)cc1-c1cccc(CO)c1` [Compound 36, 8-(3-amino-4-(3-(hydroxymethyl)phenyl)-1H-pyrazol-1-yl)pyrido[3,4-d]pyrimidin-4(3H)-one]: the inhibition at 0.1 µM lay in the range of 20 to 50%.
Next, `CN1CCN(Cc2cccc(-c3cn(-c4nccc5c(=O)[nH]cnc45)nc3N)c2)CC1` [Compound 37, 8-(3-amino-4-(3-((4-methylpiperazin-1-yl)methyl)phenyl)-1H-pyrazol-1-yl)pyrido[3,4-d]pyrimidin-4(3H)-one]: below 20%; `O=c1[nH]cnc2c(-c3csc(NCCO)n3)nccc12` [Compound 38, 8-(2-((2-hydroxyethyl)amino)thiazol-4-yl)pyrido[3,4-d]pyrimidin-4(3H)-one]: at least 50%; `C[C@H](O)CNc1nc(-c2nccc3c(=O)[nH]cnc23)cs1` [Compound 39, (S)-8-(2-((2-hydroxypropyl)amino)thiazol-4-yl)pyrido[3,4-d]pyrimidin-4(3H)-one]: at least 50%.
Next, `C[C@@H](O)CNc1nc(-c2nccc3c(=O)[nH]cnc23)cs1` [Compound 40, (R)-8-(2-((2-hydroxypropyl)amino)thiazol-4-yl)pyrido[3,4-d]pyrimidin-4(3H)-one]: at least 50%; `O=c1[nH]cnc2c(-c3csc(NCC4CCCO4)n3)nccc12` (stereo not drawn) [Compound 41, 8-(2-(((tetrahydrofuran-2-yl)methyl)amino)thiazol-4-yl)pyrido[3,4-d]pyrimidin-4(3H)-one]: at least 50%.
On to `COCCNc1nc(-c2nccc3c(=O)[nH]cnc23)cs1` [Compound 42, 8-(2-((2-methoxyethyl)amino)thiazol-4-yl)pyrido[3,4-d]pyrimidin-4(3H)-one], for which the inhibition at 0.1 µM was at least 50%.
Next, `CN(C)CCNc1nc(-c2nccc3c(=O)[nH]cnc23)cs1` [Compound 43, 8-(2-((2-(dimethylamino)ethyl)amino)thiazol-4-yl)pyrido[3,4-d]pyrimidin-4(3H)-one]: 20 to 50%; `NCCNc1nc(-c2nccc3c(=O)[nH]cnc23)cs1` [Compound 44, 8-(2-((2-aminoethyl)amino)thiazol-4-yl)pyrido[3,4-d]pyrimidin-4(3H)-one]: 20 to 50%.
As for `CN1CCN(CCNc2nc(-c3nccc4c(=O)[nH]cnc34)cs2)CC1` [Compound 45, 8-(2-((2-(4-methylpiperazin-1-yl)ethyl)amino)thiazol-4-yl)pyrido[3,4-d]pyrimidin-4(3H)-one], the figure is 20 to 50%.
For the compound `O=c1[nH]cnc2c(-c3csc(NCCCO)n3)nccc12` [Compound 46, 8-(2-((3-hydroxypropyl)amino)thiazol-4-yl)pyrido[3,4-d]pyrimidin-4(3H)-one], the inhibition at 0.1 µM lay within 20 to 50%.
As for `CN(C)CCCNc1nc(-c2nccc3c(=O)[nH]cnc23)cs1` [Compound 47, 8-(2-((3-(dimethylamino)propyl)amino)thiazol-4-yl)pyrido[3,4-d]pyrimidin-4(3H)-one], the figure is 20 to 50%; as for `CN1CCCC1CCNc1nc(-c2nccc3c(=O)[nH]cnc23)cs1` (stereo not drawn) [Compound 48, 8-(2-((2-(1-methylpyrrolidin-2-yl)ethyl)amino)thiazol-4-yl)pyrido[3,4-d]pyrimidin-4(3H)-one], 20 to 50%.
Next, `O=c1[nH]cnc2c(-c3csc(NC4CCNCC4)n3)nccc12` [Compound 49, 8-(2-(piperidin-4-ylamino)thiazol-4-yl)pyrido[3,4-d]pyrimidin-4(3H)-one]: 20 to 50%; `CN1CCC(Nc2nc(-c3nccc4c(=O)[nH]cnc34)cs2)CC1` [Compound 50, 8-(2-((1-methylpiperidin-4-yl)amino)thiazol-4-yl)pyrido[3,4-d]pyrimidin-4(3H)-one]: 20 to 50%; `O=c1[nH]cnc2c(-c3csc(NCC4CCN(CCO)CC4)n3)nccc12` [Compound 51, 8-(2-(((1-(2-hydroxyethyl)piperidin-4-yl)methyl)amino)thiazol-4-yl)pyrido[3,4-d]pyrimidin-4(3H)-one]: at least 50%.
As for `O=c1[nH]cnc2c(-c3csc(NCC4CCN(Cc5ccccc5)CC4)n3)nccc12` [Compound 52, 8-(2-(((1-benzylpiperidin-4-yl)methyl)amino)thiazol-4-yl)pyrido[3,4-d]pyrimidin-4(3H)-one], the figure is at least 50%.
As for `COCCN1CCC(CNc2nc(-c3nccc4c(=O)[nH]cnc34)cs2)CC1` [Compound 53, 8-(2-(((1-(2-methoxyethyl)piperidin-4-yl)methyl)amino)thiazol-4-yl)pyrido[3,4-d]pyrimidin-4(3H)-one], the inhibition at 0.1 µM was at least 50%.
As for `O=c1[nH]cnc2c(-c3csc(NCC4CCN(C5CCCC5)CC4)n3)nccc12` [Compound 54, 8-(2-(((1-cyclopentylpiperidin-4-yl)methyl)amino)thiazol-4-yl)pyrido[3,4-d]pyrimidin-4(3H)-one], the figure is at least 50%; as for `CC(C)N1CCC(CNc2nc(-c3nccc4c(=O)[nH]cnc34)cs2)CC1` [Compound 55, 8-(2-(((1-isopropylpiperidin-4-yl)methyl)amino)thiazol-4-yl)pyrido[3,4-d]pyrimidin-4(3H)-one], at least 50%; as for `O=c1[nH]cnc2c(-c3csc(NCC4CCNCC4)n3)nccc12` [Compound 56, 8-(2-((piperidin-4-ylmethyl)amino)thiazol-4-yl)pyrido[3,4-d]pyrimidin-4(3H)-one], at least 50%.
Next, `N[C@H]1CC[C@@H](Nc2nc(-c3nccc4c(=O)[nH]cnc34)cs2)CC1` [Compound 57, 8-(2-(((1s,4s)-4-aminocyclohexyl)amino)thiazol-4-yl)pyrido[3,4-d]pyrimidin-4(3H)-one]: 20 to 50%.
As to `CN1CCOC(CNc2nc(-c3nccc4c(=O)[nH]cnc34)cs2)C1` (stereo not drawn) [Compound 58, 8-(2-(((4-methylmorpholin-2-yl)methyl)amino)thiazol-4-yl)pyrido[3,4-d]pyrimidin-4(3H)-one], the inhibition at 0.1 µM lay in the range of 20 to 50%.
Next, `CN1CCC(CNc2nc(-c3nccc4c(=O)[nH]cnc34)cs2)C1` (stereo not drawn) [Compound 59, 8-(2-(((1-methylpyrrolidin-3-yl)methyl)amino)thiazol-4-yl)pyrido[3,4-d]pyrimidin-4(3H)-one]: 20 to 50%; `CCC(O)CNc1nc(-c2nccc3c(=O)[nH]cnc23)cs1` (stereo not drawn) [Compound 60, 8-(2-((2-hydroxybutyl)amino)thiazol-4-yl)pyrido[3,4-d]pyrimidin-4(3H)-one]: 20 to 50%.
